From ChEMBL document CHEMBL1134154, “1-Alkyl-3-amino-5-aryl-1H-[1,2,4]triazoles: novel synthesis via cyclization of N-acyl-S-methylisothioureas with alkylhydrazines and their potent corticotropin-releasing factor-1 (CRF(1)) receptor antagonist activities” (Bioorg Med Chem Lett, 2001)

Columns and labels:
[1] = molecular target: T1, Corticotropin-releasing factor receptor 1 (Homo sapiens, UniProt P34998); test: Tested for in vivo activity and binding affinity to human Corticotropin releasing factor receptor 1; In activie
T1 sequence (P34998 whole entry): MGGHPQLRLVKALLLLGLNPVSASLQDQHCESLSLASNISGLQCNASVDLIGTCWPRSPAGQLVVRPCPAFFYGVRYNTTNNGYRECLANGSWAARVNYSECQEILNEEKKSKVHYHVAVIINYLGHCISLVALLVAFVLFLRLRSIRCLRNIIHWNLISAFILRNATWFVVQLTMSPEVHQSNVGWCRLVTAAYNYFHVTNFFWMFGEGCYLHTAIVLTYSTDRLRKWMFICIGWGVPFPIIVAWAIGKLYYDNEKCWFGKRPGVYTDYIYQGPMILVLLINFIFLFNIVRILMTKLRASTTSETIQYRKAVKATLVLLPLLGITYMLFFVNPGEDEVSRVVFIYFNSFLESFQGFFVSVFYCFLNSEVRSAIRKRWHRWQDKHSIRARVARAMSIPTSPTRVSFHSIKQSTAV

[2] = molecular target: T1, Corticotropin-releasing factor receptor 1; test: Inhibition of [125I]o-CRF binding to human Corticotropin releasing factor receptor 1 expressed in CHO cells.; format: cell-based
[3] = molecular target: T1, Corticotropin-releasing factor receptor 1; test: Binding affinity to cloned human CRF1 receptor expressed in CHO cells using [125I]o-CRF as radioligand at 10 uM concentration; In activie; format: cell-based
[4] = molecular target: T1, Corticotropin-releasing factor receptor 1; test: Binding affinity to cloned human Corticotropin releasing factor receptor 1 expressed in CHO cells using [125I]o-CRF as radioligand at 10 uM concentration; In activie; format: cell-based
[5] = molecular target: T2, Corticotropin-releasing factor receptor 1 (Homo sapiens) (UniProt P34998); test: Binding affinity to cloned human Corticotropin releasing factor receptor 1 expressed in CHO cells using [125I]o-CRF as radioligand; format: cell-based; conditions: concentration not given here
T2 sequence (whole entry): T1 sequence (P34998 whole entry)

| Structure (SMILES) | Ki [2] [nM] | further results |
| --- | --- | --- |
| CCCN(CC1CC1)c1nc(C)nc(Nc2c(Cl)cc(Cl)cc2Cl)c1Cl |  | Ki [1]: Not Active |
| CCCN(CCC)c1n[nH]c(-c2ccc(Cl)cc2Cl)n1 |  | Ki [4]: Not Active |
| CCCN(c1nc(-c2ccc(Cl)cc2Cl)nn1C)C(C1CC1)C1CC1 | > 10000 |  |
| CCCN(CC1CC1)c1nc(-c2ccc(Cl)cc2Cl)n(C)n1 | > 10000 |  |
| CCCCN(CC)c1nc(C)nc2c1c(C)cn2-c1c(C)cc(C)cc1C [CP-154526] |  | Ki [1]: Not Active |
| C=CCn1nc(N(CCC)C(C2CC2)C2CC2)nc1-c1ccc(Cl)cc1Cl |  | inhibition [5]: 77% |
| CCCN(CC1CC1)c1n[nH]c(-c2cccc3cc(OC)ccc23)n1 |  | Ki [4]: Not Active |
| CCCN(CC1CC1)c1nc(-c2cccc3cc(OC)ccc23)n(C)n1 |  | Ki [4]: Not Active |

Further molecules by falling Ki [2], results first:

| Ki [2] [nM] | Structure (SMILES) | further results |
| --- | --- | --- |
| 2600 | CCCN(CCC)c1nc(-c2ccc(Cl)cc2Cl)n(C)n1 |  |
| 2400 | CCCN(c1n[nH]c(-c2ccc(Cl)cc2Cl)n1)C(C1CC1)C1CC1 |  |
| 2200 | C=CCn1nc(N(CCC)C(C2CC2)C2CC2)nc1-c1c(C)cc(C)cc1C |  |
| 310 | CCCN(c1nc(-c2c(C)cc(C)cc2C)n(CC)n1)C(C1CC1)C1CC1 |  |
| 120 | CCCN(c1nc(-c2c(C)cc(C)cc2C)n(C)n1)C(C1CC1)C1CC1 |  |
| 80 | CCCN(c1nc(-c2ccc(Cl)cc2Cl)n(CC)n1)C(C1CC1)C1CC1 |  |
| 33 | CCCN(c1nc(-c2ccc(Cl)cc2)n(C)n1)C(C1CC1)C1CC1 |  |
| 26 | CCCN(c1nc(-c2ccc(Cl)cc2OC)n(C)n1)C(C1CC1)C1CC1 |  |
| 22 | CCCN(c1nc(-c2ccc(Cl)cc2C)n(C)n1)C(C1CC1)C1CC1 |  |
| 15 | CCCN(c1nc(-c2cc(F)c(Cl)cc2Cl)n(C)n1)C(C1CC1)C1CC1 |  |
| 14 | CCCN(CCC)c1nc(-c2ccc(Cl)cc2Cl)n(CCO)n1 | Ki [3]: Not Active |
| 10 | CCCN(c1nc(-c2ccc(Br)cc2C)n(C)n1)C(C1CC1)C1CC1 |  |
| 9 | CCCN(c1nc(-c2ccc(Cl)cc2Cl)n(C)n1)C(C1CC1)C1CC1 |  |
